Measurements: patent US20060240494A1, “Biocidal molecules, macromolecular targets and methods of production and use” (priority 2000, published 2006)
Several values for one entry are separate records, joined by “and”; a condition that tells them apart may be missing. Equal values may be shown once. Read-outs that look alike come from different tables or passages of the source. Non-standard residues stand in square brackets, D forms with d. Residues, ends and D or L forms follow the SMILES beside them. No end group written: not given here. Ac6c = NC1(C(=O)O)CCCCC1; Dap = NC[C@H](N)C(=O)O

How the values were obtained:
[1] = tested on: β-galactosidase activities of live E. coli TG-1 cells; format: cell-based; conditions: for Inhibition of enzymatic activity after 1 hour (%) β-Galactosidase: peptide 32 μg/mL, live E. coli TG-1, three independent assays
[2] = tested on: alkaline phosphatase activities of live E. coli TG-1 cells; format: cell-based; conditions: peptide 32 μg/mL; live E. coli TG-1; four independent assays
[3] = molecular target: T1, recombinant E. coli DnaK (Escherichia coli, UniProt P0A6Y8); assay: EnzChek ATPase assay, recombinant DnaK; format: biochemical; conditions: 50 molar equivalents of peptide; 22° C., 30 min; UV absorbance at 360 nm
T1 construct: purchased StressGen, Victoria, Canada
T1 sequence (P0A6Y8 whole entry): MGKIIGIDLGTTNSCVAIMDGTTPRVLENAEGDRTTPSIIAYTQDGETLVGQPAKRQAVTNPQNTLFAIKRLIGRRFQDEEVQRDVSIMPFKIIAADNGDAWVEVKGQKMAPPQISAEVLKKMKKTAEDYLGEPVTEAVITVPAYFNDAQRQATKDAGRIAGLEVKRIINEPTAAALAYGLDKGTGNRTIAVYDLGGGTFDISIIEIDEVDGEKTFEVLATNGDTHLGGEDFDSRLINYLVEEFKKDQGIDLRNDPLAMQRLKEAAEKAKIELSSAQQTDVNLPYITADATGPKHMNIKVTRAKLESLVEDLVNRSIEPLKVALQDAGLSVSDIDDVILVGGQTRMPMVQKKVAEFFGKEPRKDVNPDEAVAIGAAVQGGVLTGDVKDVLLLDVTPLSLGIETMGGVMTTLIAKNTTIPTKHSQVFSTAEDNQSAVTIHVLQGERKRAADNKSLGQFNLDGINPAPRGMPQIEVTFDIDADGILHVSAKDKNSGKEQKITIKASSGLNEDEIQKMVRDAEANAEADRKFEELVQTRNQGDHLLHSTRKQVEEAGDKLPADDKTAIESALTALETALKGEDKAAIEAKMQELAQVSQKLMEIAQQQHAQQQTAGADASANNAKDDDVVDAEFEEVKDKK
Excerpt: To determine whether the proline-rich antibacterial peptides that were predicted to bind to DnaK between the peptide binding pocket and the C-terminus would interfere with ATPase activity, a recently developed continuous spectrophotometric (colorimetric) ATPase activity assay [Rieger, C. E. et al, (1997) Anal. Biochem. 246: 86-95] was used. This assay uses using 2-amino-6-mercapto-7-methylpurine ribonucleoside (MESG)/purine nucleoside phosphorylase reaction to detect the released inorganic phosphate (EnzChek ATPase determination kit from Molecular Probes, Eugene, USA). Assays were performed in 500 μL tubes in duplicates in a total volume of 125 μL containing 20 mM tris(hydroxymethyl)amino-ethane (Tris)-HCl, pH 7.6, 1 mM MgCl2, […] (except in assaying the baseline), 5 μg of DnaK (recombinant DnaK protein from StressGen,Victoria, Canada) and 50 molar equivalents of the particular peptide, MESG and the purine nucleoside phosphorylase recommended by the manufacturer. After incubation at 22° C. for 30 min, 100 μL of the reaction mixture was transferred to a quartz cuvette and the ultraviolet (UV) absorbance at 360 nm was measured. The assay was run in a miniaturized form to increase the concentration and therefore the enzymatic activity of DnaK. In a larger, standard format the ATPase activity of DnaK without peptide addition was 6 pmol/μg/min, in line with the published data of 4 pmol/μg/min [Liberek, K. et al, (1991) Proc. Natl. Acad. Sci. USA 88: 2874-2878].

[4] = molecular target: E. coli DnaK fragment aa588-615 (Escherichia coli, UniProt P0A6Y8); assay: Fluorescence polarization with synthetic DnaK fragment aa588-615; format: binding
Sequence of E. coli DnaK fragment aa588-615 (P0A6Y8 589-616 limits assumed): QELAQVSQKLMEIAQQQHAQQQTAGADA

[5] = molecular target: E. coli DnaK aa583-615 (Escherichia coli, UniProt P0A6Y8); assay: Circular dichroism of peptide - E. coli DnaK fragment mixtures; format: binding; conditions: DnaK spectrum subtracted from mixture
Sequence of E. coli DnaK aa583-615 (P0A6Y8 584-616 limits assumed): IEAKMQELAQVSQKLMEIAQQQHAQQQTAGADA
Excerpt: CD spectra are taken in water, and water-trifluoroethanol (TFE) mixtures to determine whether the characteristic unordered or turn→α-helix conformational transition, frequently observed for peptide fragments of helical domains of proteins, occurs at identical TFE concentrations. In pure water, the CD spectra of the E. coli and S. aureus DnaK fragments could be assigned as a type C spectrum, and reflect the dominance of type I (III) β-turns, or a mixture of type I and type II turns. […] This is an unmistakable indication of the appearance of helical structures, most likely 310-helices. The two DnaK fragments behaved identically, at least in spectral terms. While the spectral features of well-developed α-helices could already be seen at a TFE concentration as low as 10%, the intensity was increased with increasing TFE content. In 100% TFE a fully α-helical spectrum was recorded.
To estimate the bound conformation of the antibacterial peptides, the spectra of drosocin or pyrrhocoricin alone, as well as those of the E. coli and S. aureus DnaK fragments were recorded, followed by the recording of the CD spectra of antibacterial peptide-DnaK fragment mixtures. […]

[6] = within a four-hour period; Hoffmann et al, 1999; cited from earlier work
[7] = within a four-hour period; Hoffmann et al, 1999; cited from earlier work; remark: listed apart in the source
[8] = tested on: M. luteus; assay: Growth inhibition assay, M. luteus; format: cell-based, Micrococcus luteus; conditions: Luria-Bertani rich nutrient medium
Description: Growth inhibition assays are performed using the candidate antibacterial compounds and the Gram positive microorganisms Micrococcus luteus and Bacillus megaterium, and the Gram negative microorganisms, Escherichia coli D22, Agrobacterium tumefaciens, and Salmonella typhimurium. Antibacterial assays are performed in sterilized 96-well plates (Nunc F96 microtiter plates) with a final volume of 100 μl as described in Bulet (1996), cited above. Briefly, 90 μl of a suspension of a midlogarithmic phase bacterial culture at an initial 600 nm UV absorbance of 0.001 in Luria-Bertani rich nutrient medium is added to 10 μl of serially diluted candidate compounds in sterilized water. The final compound concentrations range between 0.15 and 80 μM, and more preferably between 0.3 μM and 40 μM. The plates are incubated at 30° C. for 24 hours with gentle shaking, and the growth inhibition is measured by recording the increase of the UV absorbance at 600 nm on an SLT Labinstruments 400 ATC microplate reader. The experiments are conducted over a 7-month period.
The inhibitory concentrations (IC50) of each candidate compound is determined against each above-indicated microorganism.
As one example, this in vitro antibacterial assay was performed on a broad spectrum divalent pyrrhocoricin analog, Chex-Pyrrhocoricin-2-19-Dap-[Chex-Pyrrhocoricin-2-19-Dap(Ac)], and the results illustrated in Table 4.

[9] = tested on: Ras; assay: Competition fluorescence polarization against labeled pyrrhocoricin, Ras; format: binding; conditions: 4 μM Ras reading 52±7
[10] = molecular target: Hsp70 (Homo sapiens, UniProt P0DMV8); assay: EnzChek ATPase assay, recombinant Hsp70; format: biochemical; conditions: human equivalent of DnaK
Sequence of Hsp70 (P0DMV8 whole entry, the tested form may be a part): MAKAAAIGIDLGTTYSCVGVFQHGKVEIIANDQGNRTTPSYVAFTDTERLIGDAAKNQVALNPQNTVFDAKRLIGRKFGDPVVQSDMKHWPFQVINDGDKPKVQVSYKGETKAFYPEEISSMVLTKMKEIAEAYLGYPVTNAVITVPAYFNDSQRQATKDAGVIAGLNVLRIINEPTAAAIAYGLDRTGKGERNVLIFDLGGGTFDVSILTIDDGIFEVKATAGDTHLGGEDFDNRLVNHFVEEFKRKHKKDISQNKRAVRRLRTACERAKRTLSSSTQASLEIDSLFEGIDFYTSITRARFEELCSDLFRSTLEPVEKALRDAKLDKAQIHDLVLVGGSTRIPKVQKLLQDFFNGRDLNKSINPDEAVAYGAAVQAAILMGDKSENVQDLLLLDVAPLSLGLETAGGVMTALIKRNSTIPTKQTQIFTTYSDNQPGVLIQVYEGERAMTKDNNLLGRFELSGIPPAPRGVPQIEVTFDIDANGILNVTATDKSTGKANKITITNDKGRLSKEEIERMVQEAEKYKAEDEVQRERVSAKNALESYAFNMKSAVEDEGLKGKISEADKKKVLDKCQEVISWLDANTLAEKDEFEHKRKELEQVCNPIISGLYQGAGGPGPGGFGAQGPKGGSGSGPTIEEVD

[11] = molecular target: E. coli DnaK fragment aa583-615 (D-E helix hinge) (Escherichia coli, UniProt P0A6Y8); assay: Fluorescence polarization with synthetic DnaK fragment aa583-615; format: binding
Sequence of E. coli DnaK fragment aa583-615 (D-E helix hinge) (P0A6Y8 584-616): as the sequence (P0A6Y8 584-616 limits assumed) above
Description: The binding of the synthetic DnaK fragments to their fluorescein-labeled pyrrhocoricin counterparts was also assessed in solution, by fluorescence polarization [Lundblad, J. R. et al, (1996) Mol. Endocrinol. 10: 607-612]. For these experiments, the unlabeled peptides were serially diluted in PBS (pH 7.4) or 0.1 M Tris-HCl (pH 8.0) containing 0.1 M ethylene-diamine-tetraacetic acid (EDTA) in 50 μL final volume in 6×50 mm disposable glass borosilicate tubes. The fluoresceinated peptides were added to each tube in a 50 μL aliquot to a final concentration of 1 nM and tubes were incubated at 37° C. for 5 minutes. The extent of fluorescence anisotropy was measured on a Beacon 2000 fluorescence polarization instrument (PanVera, Madison, Wis.) and calculated as millipolarization values. The filters used were 485 nm excitation and 535 nm emission with 3 nm band width. Non-linear curve fitting was done by using a dose-response logistical transition [y=a0+a1/(1+x/a2)^a^3] and the Levenberg-Marquardt Algorithm within the SlideWrite software package. The provided Kd value (a2 coefficient) was calculated by the program.
To quantitatively characterize the pyrrhocoricin—D-E helix interaction, the complete binding curves were measured for E. coli DnaK fragments aa583-615 and aa588-615, both of SEQ ID NO: 10.

[12] = tested on: bacteria; assay: Bacterial killing by labeled and unlabeled pyrrhocoricin; format: cell-based
[13] = tested on: E. coli strain (ATCC 25922); assay: Validated antibacterial assay conditions, E. coli ATCC 25922; format: cell-based
[14] = molecular target: S. aureus aa554-585 DnaK fragment (Staphylococcus aureus, UniProt P45554); assay: Circular dichroism of peptide - S. aureus DnaK fragment mixtures; format: binding; conditions: wavelength of band maxima
Sequence of S. aureus aa554-585 DnaK fragment (P45554 554-585 limits assumed): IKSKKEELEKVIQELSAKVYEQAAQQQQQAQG
Description: To estimate the bound conformation of the antibacterial peptides, the spectra of drosocin or pyrrhocoricin alone, as well as those of the E. coli and S. aureus DnaK fragments were recorded, followed by the recording of the CD spectra of antibacterial peptide-DnaK fragment mixtures. Finally the original spectra of the DnaK peptides were subtracted from the spectra of the mixtures, and the residual spectra, representing the conformation of the bound peptides were compared to the spectra of the antibacterial peptides alone. This exercise is justifiable only if the conformation of the protein fragments remain unchanged upon interaction with drosocin or pyrrhocoricin. […] It is expected that the binding will not modify the helix structure of the rigid DnaK fragments, but can influence the conformation of the flexible antibacterial peptides.
The results of this conformational analysis for pyrrhocoricin—E. coli DnaK interaction are as follows. The CD spectrum of the mixture of the two peptides resembled that of the DnaK fragment alone, except that the intensities were lower, due to the lower intensity of the CD spectrum of pyrrhocoricin.
To ascertain that this conformational change upon binding was not a spectroscopical artifact, the procedure was repeated with pyrrhocoricin and the DnaK peptide derived from the non-responsive strain S. aureus.

[15] = tested on: S. aureus; conditions: Otvos et al, 2000, Biochemistry; cited from earlier work
[16] = tested on: E. coli D22; conditions: Otvos et al, 2000, Protein Science; cited from earlier work
[17] = tested on: E. coli infection; conditions: Otvos et al, 2000, cited from earlier work
[18] = molecular target: GroEL (Escherichia coli, UniProt P0A6F5); format: binding, E. coli; parameters: purchased; host or cells: E. coli; conditions: then 1 nM fluorescein-K-pyrrhocoricin, no peptide 70 ± 10
Sequence of GroEL (P0A6F5 2-548 limits assumed): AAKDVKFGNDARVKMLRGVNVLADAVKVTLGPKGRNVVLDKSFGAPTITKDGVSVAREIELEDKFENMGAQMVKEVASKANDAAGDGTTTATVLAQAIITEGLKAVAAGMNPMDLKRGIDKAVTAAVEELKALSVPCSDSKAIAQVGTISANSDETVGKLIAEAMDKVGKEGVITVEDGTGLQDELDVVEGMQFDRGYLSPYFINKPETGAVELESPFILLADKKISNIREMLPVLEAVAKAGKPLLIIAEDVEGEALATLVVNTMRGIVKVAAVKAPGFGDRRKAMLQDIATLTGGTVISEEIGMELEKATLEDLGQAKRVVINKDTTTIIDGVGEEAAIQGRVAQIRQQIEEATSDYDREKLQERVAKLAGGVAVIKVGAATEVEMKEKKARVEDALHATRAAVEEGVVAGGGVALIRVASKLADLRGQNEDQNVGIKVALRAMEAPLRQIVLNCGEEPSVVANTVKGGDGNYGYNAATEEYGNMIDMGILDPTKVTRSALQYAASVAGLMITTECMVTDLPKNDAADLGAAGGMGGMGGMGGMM

[19] = molecular target: DnaK (Escherichia coli, UniProt P0A6Y8); format: binding, E. coli; parameters: purchased; host or cells: E. coli
Sequence of DnaK (P0A6Y8 whole entry): as the sequence (P0A6Y8 whole entry) above

Molecule: GKPRPYSPRPTSHPRPIRV [Drosocin]
- effect on β-galactosidase activity after 6 hours ([1]; 32 μg/mL, FIG. 2A): detrimental
- Inhibition of enzymatic activity after 1 hour (%) β-Galactosidase [1]: 98 ± 68%
- Inhibition of enzymatic activity after 1 hour (%) Alkaline Phosphatase [2]: 35 ± 27%
- effect on ATPase activity of recombinant DnaK [3]: without affecting
- binding to aa588-615 fragment [4]: considerably weaker than pyrrhocoricin
- CD spectral change of the peptide upon mixing with DnaK fragment [5]: did not appear to modify the conformation
- degradation in diluted human serum [6]: completely degraded
- degradation in diluted mouse serum [7]: completely degraded

Molecule: CC[C@H](C)[C@H](NC(=O)[C@@H]1CCCN1C(=O)[C@H](CCCNC(=N)N)NC(=O)[C@@H]1CCCN1C(=O)[C@@H]1CCCN1C(=O)[C@@H](NC(=O)[C@@H]1CCCN1C(=O)[C@H](CCCNC(=N)N)NC(=O)[C@@H]1CCCN1C(=O)[C@H](CC(C)C)NC(=O)[C@H](Cc1ccc(O)cc1)NC(=O)[C@H](CO)NC(=O)CNC(=O)[C@H](CCCCN)NC(=O)[C@H](CC(=O)O)NC(=O)C1(NC(=O)[C@H](CN)NC(=O)[C@H](CCCNC(=N)N)NC(=O)[C@H](CC(N)=O)NC(=O)[C@H](Cc2ccc(O)cc2)NC(=O)[C@@H](NC(=O)[C@@H]2CCCN2C(=O)[C@H](CCCNC(=N)N)NC(=O)[C@@H]2CCCN2C(=O)[C@@H]2CCCN2C(=O)[C@@H](NC(=O)[C@@H]2CCCN2C(=O)[C@H](CCCNC(=N)N)NC(=O)[C@@H]2CCCN2C(=O)[C@H](CC(C)C)NC(=O)[C@H](Cc2ccc(O)cc2)NC(=O)[C@H](CO)NC(=O)CNC(=O)[C@H](CCCCN)NC(=O)[C@H](CC(=O)O)NC(=O)C2(N)CCCCC2)[C@@H](C)O)[C@@H](C)CC)CCCCC1)[C@@H](C)O)C(=O)N[C@@H](Cc1ccc(O)cc1)C(=O)N[C@@H](CC(N)=O)C(=O)N[C@@H](CCCNC(=N)N)C(=O)N[C@@H](CNC(C)=O)C(=O)O [Chex-Pyrrhocoricin-2-19-Dap-[Chex-Pyrrhocoricin-2-19-Dap(Ac)]] (H-[Ac6c]DKGSYLPRPTPPRPIYNR[Dap][Ac6c]DKGSYLPRPTPPRPIYNR[Dap](Ac)-OH; C-terminus assumed)
- IC50 [8]: 40 to 80 µM

Molecule: VDKGSYLPRPTPPRPIYNRN [pyrrhocoricin]
- decrease of the Ras readings ([9]; preincubation with 4 μM peptide): 16 millipolarization units
- decrease of the Ras readings ([9]; preincubation with 8 μM peptide): 27 millipolarization units
- Inhibition of enzymatic activity after 1 hour (%) β-Galactosidase [1]: 153 ± 57%
- Inhibition of enzymatic activity after 1 hour (%) Alkaline Phosphatase [2]: 32 ± 16%
- effect on ATPase activity of recombinant DnaK [3]: less than half of the original value
- effect on ATPase activity of recombinant Hsp70 [10]: did not influence
- Kd [11]: 50.8 µM
- concentration range killing bacteria [12]: mid-nanomolar concentration range
- killing of E. coli ATCC 25922 [13]: failed to kill
- CD spectral change of the peptide upon mixing with DnaK fragment [5]: redshift of both pyrrhocoricin bands
- CD spectral change of the peptide upon mixing with DnaK fragment [14]: remained unchanged
- activity against S. aureus in vitro [15]: inactive
- killing of E. coli D22 [16]: nanomolar concentrations
- toxicity in vivo ([17]; higher dose for pyrrhocoricin, compromised animals): toxic to compromised animals
- protection of mice against E. coli infection ([17]; low doses for pyrrhocoricin): protected mice
- Millipolarization after preincubation with ([18]; 4 μM GroEL preincubated with 4 μM unlabeled peptide, corrected with Ras readings): 62
- Millipolarization after preincubation with ([18]; 4 μM GroEL preincubated with 8 μM unlabeled peptide): 62
- Millipolarization after preincubation with [19]: 110 and 84
